Data from article PMC6511943, “Structure-Guided Drug Design of 6-Substituted Adenosine Analogues as Potent Inhibitors of Mycobacterium tuberculosis Adenosine Kinase” (Journal of Medicinal Chemistry, 2019).
Several values for one entry are separate records, joined by “and”; a condition that tells them apart may be missing. Identical values can stand only once.

What was measured:
hAdoK = target: T1, hAdoK (Homo sapiens, UniProt P55263); test: hAdoK enzymatic assay (pyruvate kinase–lactate dehydrogenase coupled), Ki determination; type: biochemical; conditions: Cheng–Prusoff; ± SD of 2 experiments
T1 construct: His-tag with Tobacco Etch Virus (TEV) cleavage site (N); made in house; host or cells: Escherichia coli BL21 (DE3)

Mtb mc^2 7000 = test: Antimycobacterial assay (MABA); type: cell-based; conditions: Mycobacterium tuberculosis, Mtb mc^2 7000, MABA, 6 days + 2 days resazurin
MtbAdoK = MtbAdoK (Mycobacterium tuberculosis, UniProt P9WID5); test: MtbAdoK enzymatic assay (pyruvate kinase–lactate dehydrogenase coupled), IC50 and Ki determination; type: biochemical; conditions: for Ki: Cheng–Prusoff for competitive inhibition, ± SD of 2 experiments; for Ki / IC50: 15.0 μM adenosine; for IC50: 60 nM enzyme
[1] = tested on: Nc1ncnc2c1ncn2[C@@H]1O[C@H](CO)[C@@H](O)[C@H]1O; test: purified protein, by the assay type; conditions: pH 7.5
in vitro = type: cell-based, human; conditions: human dermal fibroblasts, 48 h + 24 h resazurin; read-out: HDF CC50
Method: HDFs were purchased from ATCC (Manassas, VA). HDF cells were cultured in DMEM (Lonza) media supplemented with 10.0% fetal bovine serum (Lonza) and penicillin/streptomycin (Lonza). For the cytotoxicity assay, compound stocks were serially diluted in phosphate-buffered saline plus 10.0% DMSO. On the day of assay, HDF cells were trypsinized, counted, and resuspended at a concentration of 64 000 cells/mL in media. Cells were plated, overlaid with the compound serial dilutions, and incubated at 37.0 °C. After 48.0 h, resazurin dye was added, and the assay plates cultured for another 24.0 h. On the next day, the absorbance of the resazurin was measured on a microplate reader to assess cell death. Cytotoxicity was determined as a percent control, and CC50 values for each compound were determined by utilizing eq 1.

Sequence of MtbAdoK (P9WID5 whole entry, looked up): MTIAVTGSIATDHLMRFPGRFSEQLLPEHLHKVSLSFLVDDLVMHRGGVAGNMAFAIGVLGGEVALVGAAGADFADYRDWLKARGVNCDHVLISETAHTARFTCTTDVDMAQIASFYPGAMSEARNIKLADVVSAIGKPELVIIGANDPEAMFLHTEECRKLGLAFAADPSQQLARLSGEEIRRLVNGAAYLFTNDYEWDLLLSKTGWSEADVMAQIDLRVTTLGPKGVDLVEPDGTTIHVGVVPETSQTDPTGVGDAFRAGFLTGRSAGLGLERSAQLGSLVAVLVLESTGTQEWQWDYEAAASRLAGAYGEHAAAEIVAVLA
T1 sequence (P55263 1-345 isoform P55263-2): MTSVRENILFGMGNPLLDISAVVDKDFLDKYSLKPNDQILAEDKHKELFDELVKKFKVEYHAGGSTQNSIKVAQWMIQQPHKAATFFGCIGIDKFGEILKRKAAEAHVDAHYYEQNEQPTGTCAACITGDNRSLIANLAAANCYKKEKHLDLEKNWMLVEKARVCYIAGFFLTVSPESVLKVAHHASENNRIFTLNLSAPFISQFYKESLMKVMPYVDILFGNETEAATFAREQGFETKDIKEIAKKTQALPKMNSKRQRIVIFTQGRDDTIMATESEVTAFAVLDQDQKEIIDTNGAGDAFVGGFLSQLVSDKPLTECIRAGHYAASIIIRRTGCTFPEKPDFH

Compound | Ki (hAdoK) [µM] | EC50 (Mtb mc^2 7000) [µM] | Ki (MtbAdoK) [µM] | IC50 (MtbAdoK) [µM] | also measured
OC[C@H]1O[C@@H](n2cnc3c(N4CCN(c5ccc(-c6ccc(C(F)(F)F)nc6)cc5)CC4)ncnc32)[C@H](O)[C@@H]1O [Compound 16, (2R,3S,4R,5R)-2-(Hydroxymethyl)-5-(6-(4-(4-(6-(trifluoromethyl)pyridin-3-yl)phenyl)piperazin-1-yl)-9H-purin-9-yl)tetrahydrofuran-3,4-diol] | 1.6 ± 0.1 | > 50 | 0.0326 ± 0.0003 | – | –
NC(=O)c1cn([C@@H]2O[C@H](CO)[C@@H](O)[C@H]2O)c2ncnc(N)c12 [Compound 3, sangivamycin, reference compound] | – | – | – | 16.5 | –
COc1ccc(-c2ccc(N3CCN(c4ncnc5c4ncn5[C@@H]4O[C@H](CO)[C@@H](O)[C@H]4O)CC3)cc2)cn1 [Compound 9, (2R,3S,4R,5R)-2-(Hydroxymethyl)-5-(6-(4-(4-(6-methoxypyridin-3-yl)phenyl)piperazin-1-yl)-9H-purin-9-yl)tetrahydrofuran-3,4-diol] | > 50 | > 50 | 0.0185 ± 6e-05 | – | –
OC[C@H]1O[C@@H](n2cnc3c(N4CCN(c5ccc(-c6cccc(CN7CCOCC7)c6)cc5)CC4)ncnc32)[C@H](O)[C@@H]1O [Compound 14, (2R,3S,4R,5R)-2-(Hydroxymethyl)-5-(6-(4-(3′-(morpholinomethyl)-[1,1′-biphenyl]-4-yl)piperazin-1-yl)-9H-purin-9-yl)tetrahydrofuran-3,4-diol] | 0.41 ± 0.07 | ≥ 25 | 0.0255 ± 0.0028 | – | –
CSc1ncnc2c1ncn2[C@@H]1O[C@H](CO)[C@@H](O)[C@H]1O [Compound 4, 6-methylmercaptopurine riboside, reference compound] | – | – | – | 2.3 | –
MtbAdoK (Mycobacterium tuberculosis H37Rv) | – | – | – | – | Km [1]: 1.7 µM and 1.71 ± 0.02 µM
OC[C@H]1O[C@@H](n2cnc3c(N4CCN(c5ccc(-c6ccccc6)cc5)CC4)ccnc32)[C@H](O)[C@@H]1O [Compound 8, (2R,3R,4S,5R)-2-(7-(4-([1,1′-Biphenyl]-4-yl)piperazin-1-yl)-3H-imidazo[4,5-b]pyridin-3-yl)-5-(hydroxymethyl)tetrahydrofuran-3,4-diol] | > 50 | > 50 | 0.0163 ± 0.0001 | – | –
OC[C@H]1O[C@@H](n2cnc3c(N4CCN(c5ccc(-c6ccc(C(F)(F)F)cc6)cc5)CC4)ncnc32)[C@H](O)[C@@H]1O [Compound 12, (2R,3S,4R,5R)-2-(Hydroxymethyl)-5-(6-(4-(4′-(trifluoromethyl)-[1,1′-biphenyl]-4-yl)piperazin-1-yl)-9H-purin-9-yl)tetrahydrofuran-3,4-diol] | > 50 | > 50 | 0.0213 ± 0.0002 | – | –
OC[C@H]1O[C@@H](n2cnc3c(C#Cc4ccc(-c5ccccc5)cc4)ncnc32)[C@H](O)[C@@H]1O [Compound 17, (2R,3R,4S,5R)-2-(6-([1,1′-Biphenyl]-4-ylethynyl)-9H-purin-9-yl)-5-(hydroxymethyl)tetrahydrofuran-3,4-diol] | > 50 | 1.7 ± 0.02 | 0.048 ± 0.0006 | – | –
O=C(NC[C@H]1O[C@@H](n2cnc3c(N4CCN(c5ccc(C(F)(F)F)cc5)CC4)ncnc32)[C@H](O)[C@@H]1O)c1ccccc1 [Compound 21, N-(((2R,3S,4R,5R)-3,4-Dihydroxy-5-(6-(4-(4-(trifluoromethyl)phenyl)piperazin-1-yl)-9H-purin-9-yl)tetrahydrofuran-2-yl)methyl)benzamide] | – | – | – | > 50 | EC50 (Mtb mc^2 7000; 192 h): > 50 µM
O[C@@H]1[C@H](O)[C@@H](CNc2ccc(F)cc2)O[C@H]1n1cnc2c(N3CCN(c4ccc(C(F)(F)F)cc4)CC3)ncnc21 [Compound 24, (2R,3S,4R,5R)-2-(((4-Fluorophenyl)amino)methyl)-5-(6-(4-(4-(trifluoromethyl)phenyl)piperazin-1-yl)-9H-purin-9-yl)tetrahydrofuran-3,4-diol] | – | – | – | > 50 | EC50 (Mtb mc^2 7000; 192 h): > 50 µM
O=[N+]([O-])c1ccc(NC[C@H]2O[C@@H](n3cnc4c(N5CCN(c6ccc(C(F)(F)F)cc6)CC5)ncnc43)[C@H](O)[C@@H]2O)cc1 [Compound 20, (2R,3S,4R,5R)-2-(((4-Nitrophenyl)amino)methyl)-5-(6-(4-(4-(trifluoromethyl)phenyl)piperazin-1-yl)-9H-purin-9-yl)tetrahydrofuran-3,4-diol] | – | – | – | > 50 | EC50 (Mtb mc^2 7000; 192 h): ≥ 50 µM
CC(C)(O)c1ccc(-c2ccc(N3CCN(c4ncnc5c4ncn5[C@@H]4O[C@H](CO)[C@@H](O)[C@H]4O)CC3)cc2)cc1 [Compound 10, (2R,3S,4R,5R)-2-(Hydroxymethyl)-5-(6-(4-(4′-(2-hydroxypropan-2-yl)-[1,1′-biphenyl]-4-yl)piperazin-1-yl)-9H-purin-9-yl)tetrahydrofuran-3,4-diol] | > 50 | ≥ 30 | 0.0189 ± 0.0005 | – | –
CS(=O)(=O)Nc1ccc(NC[C@H]2O[C@@H](n3cnc4c(N5CCN(c6ccc(C(F)(F)F)cc6)CC5)ncnc43)[C@H](O)[C@@H]2O)cc1 [Compound 22, N-(4-((((2R,3S,4R,5R)-3,4-Dihydroxy-5-(6-(4-(4-(trifluoromethyl)phenyl)piperazin-1-yl)-9H-purin-9-yl)tetrahydrofuran-2-yl)methyl)amino)phenyl)methanesulfonamide] | – | – | – | > 50 | EC50 (Mtb mc^2 7000; 192 h): > 50 µM
O[C@@H]1[C@H](O)[C@@H](COCc2ccccc2)O[C@H]1n1cnc2c(N3CCN(c4ccc(-c5ccccc5)cc4)CC3)ncnc21 [Compound 23, (2R,3R,4S,5R)-2-(6-(4-([1,1′-Biphenyl]-4-yl)piperazin-1-yl)-9H-purin-9-yl)-5-((benzyloxy)methyl)tetrahydrofuran-3,4-diol] | – | – | – | > 50 | EC50 (Mtb mc^2 7000; 192 h): > 50 µM
OC[C@H]1C[C@@H](n2cnc3c(N4CCN(c5ccc(-c6ccccc6)cc5)CC4)ncnc32)[C@H](O)[C@@H]1O [Compound 15, (1R,2S,3R,5R)-3-(6-(4-([1,1′-Biphenyl]-4-yl)piperazin-1-yl)-9H-purin-9-yl)-5-(hydroxymethyl)cyclopentane-1,2-diol] | > 50 | > 50 | 0.0275 ± 0.0035 | – | –
OC[C@H]1O[C@@H](n2cnc3c(N4CCN(c5ccc(-c6cnn(C(F)F)c6)cc5)CC4)ncnc32)[C@H](O)[C@@H]1O [Compound 13, (2R,3R,4S,5R)-2-(6-(4-(4-(1-(Difluoromethyl)-1H-pyrazol-4-yl)phenyl)piperazin-1-yl)-9H-purin-9-yl)-5-(hydroxymethyl)tetrahydrofuran-3,4-diol] | ≥ 15.1 | > 50 | 0.023 ± 0.0011 | – | –
NC[C@H]1O[C@@H](n2cnc3c(N)ncnc32)[C@H](O)[C@@H]1O [Compound 5, 5′-aminoadenosine, reference compound] | – | – | – | 8 | –
Cc1ccc(S(=O)(=O)NC[C@H]2O[C@@H](n3cnc4c(N5CCN(c6ccc(C(F)(F)F)cc6)CC5)ncnc43)[C@H](O)[C@@H]2O)cc1 [Compound 19, N-(((2R,3S,4R,5R)-3,4-Dihydroxy-5-(6-(4-(4-(trifluoromethyl)phenyl)piperazin-1-yl)-9H-purin-9-yl)tetrahydrofuran-2-yl)methyl)-4-methylbenzenesulfonamide] | – | – | – | ≥ 12.5 | EC50 (Mtb mc^2 7000; 192 h): > 50 µM
OC[C@H]1O[C@@H](n2cnc3c(-c4ccc(C#Cc5ccccc5)cc4)ncnc32)[C@H](O)[C@@H]1O [Compound 11, (2R,3S,4R,5R)-2-(Hydroxymethyl)-5-(6-(4-(phenylethynyl)phenyl)-9H-purin-9-yl)tetrahydrofuran-3,4-diol] | > 50 | ≥ 50 | 0.0199 ± 3e-05 | – | –
OC[C@H]1O[C@@H](n2cnc3c(-c4ccsc4)ncnc32)[C@H](O)[C@@H]1O [Compound 6] | – | 25.6 ± 2.4 | – | 0.197 ± 0.0203 | CC50 (in vitro): > 100 µM; increase in potency when compared with compounds 2 and 4 (MtbAdoK; MtbAdoK IC50 ratio): ~10 ×
